Test results as given in PMC3265250 (Chemotherapy Research and Practice, 2011).
Converted amounts (≈) assume the structure as drawn. Read-outs that look alike come from different tables or passages of the source. No end group written: not given here.

What was measured:
[1] = system: Superantigen positive S. aureus (14); details: for MIC Range / MBC Range / MIC 50% / MIC 90%: superantigen positive clinical isolates (14), triplicate; for MIC Range / MIC 50% / MIC 90%: microbroth dilution, MHB II, 5 × 10^5 CFU/mL, 18 h at 37°C; for MBC Range: more than 99.9% reduction of the initial inoculums
[2] = system: S. aureus ATCC 9144; assay: MIC, microbroth dilution, referential strain ATCC 9144; type: cell-based, Staphylococcus aureus; details: ATCC 9144, microbroth dilution, MHB II, 5 × 10^5 CFU/mL, 18 h at 37°C, triplicate
[3] = system: S. aureus ATCC 6538P; assay: MIC, microbroth dilution, referential strain ATCC 6538P; type: cell-based, Staphylococcus aureus; details: ATCC 6538P, microbroth dilution, MHB II, 5 × 10^5 CFU/mL, 18 h at 37°C, triplicate
Description: (§1) A total number of 24 SA strains were obtained from patients with erythrodermia and 3 reference SA ones from the American Type Culture Collection: 6538P ATCC, 9144 ATCC, and 25923 ATCC (Institute of Experimental Therapy, Wroclaw, Poland). […] Polypropylene 96-well plates (Sigma-Aldrich) were incubated for 18 h at 37°C. MIC was taken as the lowest drug concentration at which a noticeable growth was inhibited. […] The experiments were performed in triplicate.

[4] = system: S. aureus ATCC 25923; assay: MIC, microbroth dilution, referential strain ATCC 25923; type: cell-based, Staphylococcus aureus; details: ATCC 25923, microbroth dilution, MHB II, 5 × 10^5 CFU/mL, 18 h at 37°C, triplicate
Description: as §1

[5] = system: Superantigen negative S. aureus (10); assay: microbe, parasite or virus in culture; details: Staphylococcus aureus; for MIC50 / MIC90 / MIC: 18 h; for MIC: read-out: MIC Range
[6] = system: Superantigen positive S. aureus (14); assay: microbe, parasite or virus in culture; details: Staphylococcus aureus; for MIC50 / MIC90 / MIC: 18 h; for MIC: read-out: MIC Range
[7] = system: Superantigen negative S. aureus (10); details: for MIC 50% / MIC 90% / MIC Range / MBC Range: superantigen negative clinical isolates (10), triplicate; for MIC 50% / MIC 90% / MIC Range: microbroth dilution, MHB II, 5 × 10^5 CFU/mL, 18 h at 37°C; for MBC Range: more than 99.9% reduction of the initial inoculums
[8] = Staphylococcus aureus, ATCC9144, read-out: MIC
[9] = Staphylococcus aureus, ATCC6538P, read-out: MIC
[10] = Staphylococcus aureus, ATCC25923, read-out: MIC

Compound | MIC Range [1] | MBC Range [1] | MIC [2, 8] | MIC [3, 9] | MIC [4, 10] | MIC50 [5] | MIC90 [5] | MIC [5] | MIC90 ([5]; read-out: MICs 90%) | MBC ([5]; read-out: MBC 50%) | MBC ([5]; read-out: MBC 90%) | MIC50 [6] | MIC90 [6] | MIC90 ([6]; read-out: MICs 90%) | MBC ([6]; read-out: MBC 50%) | MBC ([6]; read-out: MBC 90%) | MBC 50% [1] | MBC 90% [1] | MBC 50% [7] | MBC Range [7] | further results
CC[C@H]1OC(=O)[C@H](C)[C@@H](O[C@H]2C[C@@](C)(OC)[C@@H](O)[C@H](C)O2)[C@H](C)[C@@H](O[C@@H]2O[C@H](C)C[C@H](N(C)C)[C@H]2O)[C@](C)(O)C[C@@H](C)C(=O)[C@H](C)[C@@H](O)[C@]1(C)O [Erythromycin, erythromycin] | 0.25 to 512 µg/mL | 4 to 512 µg/mL | 1 µg/mL (≈ 1.36 µM) | 1 µg/mL (≈ 1.36 µM) | 1 µg/mL (≈ 1.36 µM) | 0.5 µg/mL (≈ 0.681 µM) | 0.5 µg/mL (≈ 0.681 µM) | 0.25 to 64 µg/mL (≈ 0.341 to 87.2 µM) | 0.5 µg/mL (≈ 0.681 µM) | 1 µg/mL (≈ 1.36 µM) | 2 µg/mL (≈ 2.73 µM) | 1 µg/mL (≈ 1.36 µM) | 256 µg/mL (≈ 349 µM) | 256 µg/mL (≈ 349 µM) | 8 µg/mL (≈ 10.9 µM) | 128 µg/mL (≈ 174 µM) | – | – | – | – | –
FLPLIGRVLSGIL-NH2 (C-terminus assumed) [Temporin A, temporin A] | 8 to 32 µg/mL | 16 to 64 µg/mL | – | – | – | – | – | – | – | – | – | – | – | – | – | – | 32 µg/mL | 64 µg/mL | 16 µg/mL | 16 to 64 µg/mL | MIC 50% [1]: 8 µg/mL; MIC 90% [1]: 16 µg/mL; MIC [2]: 16 µg/mL; MIC [3]: 8 µg/mL; MIC [4]: 16 µg/mL; MBC 90% [7]: 32 µg/mL; MIC 50% [7]: 8 µg/mL; MIC 90% [7]: 16 µg/mL; MIC Range [7]: 8 to 32 µg/mL
GLFDVIKKVASVIGGL-NH2 (C-terminus assumed) [Citropin 1.1, citropin 1.1] | 8 to 32 µg/mL | 16 to 64 µg/mL | – | – | – | – | – | – | – | – | – | – | – | – | – | – | 16 µg/mL | 64 µg/mL | 16 µg/mL | 16 to 64 µg/mL | MIC 50% [1]: 16 µg/mL; MIC 90% [1]: 32 µg/mL; MIC [2]: 32 µg/mL; MIC [3]: 8 µg/mL; MIC [4]: 32 µg/mL; MBC 90% [7]: 64 µg/mL; MIC 50% [7]: 16 µg/mL; MIC 90% [7]: 32 µg/mL; MIC Range [7]: 8 to 32 µg/mL
CN(C)c1cc(NC(=O)CNC(C)(C)C)c(O)c2c1C[C@H]1C[C@H]3[C@H](N(C)C)C(O)=C(C(N)=O)C(=O)[C@@]3(O)C(O)=C1C2=O [Tigecycline, tigecycline] | – | 1 to 2 µg/mL | 0.25 µg/mL (≈ 0.427 µM) | 0.25 µg/mL (≈ 0.427 µM) | 0.25 µg/mL (≈ 0.427 µM) | 0.5 µg/mL (≈ 0.854 µM) | 0.5 µg/mL (≈ 0.854 µM) | 0.5 to 1 µg/mL (≈ 0.854 to 1.71 µM) | 0.5 µg/mL (≈ 0.854 µM) | 1 µg/mL (≈ 1.71 µM) | 1 µg/mL (≈ 1.71 µM) | 0.5 µg/mL (≈ 0.854 µM) | 0.5 µg/mL (≈ 0.854 µM) | 0.5 µg/mL (≈ 0.854 µM) | 1 µg/mL (≈ 1.71 µM) | 1 µg/mL (≈ 1.71 µM) | – | – | – | 1 to 2 µg/mL | MIC [6]: 0.5 to 1 µg/mL (≈ 0.854 to 1.71 µM)
GLFDIIKKIAESF-NH2 (C-terminus assumed) [Aurein 1.2, aurein 1.2] | 32 to 128 µg/mL | 64 to 128 µg/mL | – | – | – | – | – | – | – | – | – | – | – | – | – | – | 64 µg/mL | 128 µg/mL | 64 µg/mL | 64 to 128 µg/mL | MIC 50% [1]: 64 µg/mL; MIC 90% [1]: 128 µg/mL; MIC [2]: 64 µg/mL; MIC [3]: 64 µg/mL; MIC [4]: 64 µg/mL; MBC 90% [7]: 128 µg/mL; MIC 50% [7]: 64 µg/mL; MIC 90% [7]: 128 µg/mL; MIC Range [7]: 32 to 128 µg/mL
O=C(N[C@H](CO)[C@H](O)c1ccc([N+](=O)[O-])cc1)C(Cl)Cl [Chloramphenicol, chloramphenicol] | – | 8 to 128 µg/mL | 4 µg/mL (≈ 12.4 µM) | 4 µg/mL (≈ 12.4 µM) | 4 µg/mL (≈ 12.4 µM) | 4 µg/mL (≈ 12.4 µM) | 32 µg/mL (≈ 99 µM) | 2 to 32 µg/mL (≈ 6.19 to 99 µM) | 32 µg/mL (≈ 99 µM) | 8 µg/mL (≈ 24.8 µM) | 32 µg/mL (≈ 99 µM) | 8 µg/mL (≈ 24.8 µM) | 64 µg/mL (≈ 198 µM) | 64 µg/mL (≈ 198 µM) | 16 µg/mL (≈ 49.5 µM) | 128 µg/mL (≈ 396 µM) | – | – | – | 8 to 32 µg/mL | MIC [6]: 4 to 128 µg/mL (≈ 12.4 to 396 µM)
CO[C@H]1/C=C/O[C@@]2(C)Oc3c(C)c(O)c4c(O)c(c(/C=N/N5CCN(C)CC5)c(O)c4c3C2=O)NC(=O)/C(C)=C\C=C\[C@H](C)[C@H](O)[C@@H](C)[C@@H](O)[C@@H](C)[C@H](OC(C)=O)[C@@H]1C [Rifampicin, rifampicin] | – | 0.5 to 2 µg/mL | 0.25 µg/mL (≈ 0.304 µM) | 0.25 µg/mL (≈ 0.304 µM) | 0.25 µg/mL (≈ 0.304 µM) | 0.25 µg/mL (≈ 0.304 µM) | 1 µg/mL (≈ 1.22 µM) | 0.25 to 1 µg/mL (≈ 0.304 to 1.22 µM) | 1 µg/mL (≈ 1.22 µM) | 0.25 µg/mL (≈ 0.304 µM) | 1 µg/mL (≈ 1.22 µM) | 0.25 µg/mL (≈ 0.304 µM) | 1 µg/mL (≈ 1.22 µM) | 1 µg/mL (≈ 1.22 µM) | 1 µg/mL (≈ 1.22 µM) | 2 µg/mL (≈ 2.43 µM) | – | – | – | 1 to 2 µg/mL | MIC [6]: 0.25 to 1 µg/mL (≈ 0.304 to 1.22 µM)
O=C(O)c1cn(C2CC2)c2cc(N3CCNCC3)c(F)cc2c1=O [Ciprofloxacin, ciprofloxacin] | – | – | – | 1 µg/mL (≈ 3.02 µM) | 1 µg/mL (≈ 3.02 µM) | – | – | – | – | – | – | – | – | – | – | – | – | – | – | – | –
GVIDAAKKVVNVLKNLF-NH2 (C-terminus assumed) [Uperin 3.6, uperin 3.6] | – | – | – | – | – | – | – | – | – | – | – | – | – | – | – | – | 128 µg/mL | 128 µg/mL | 128 µg/mL | – | MBC 90% [7]: 128 µg/mL
CC(=O)NC[C@H]1CN(c2ccc(N3CCOCC3)c(F)c2)C(=O)O1 [Linezolid, linezolid] | – | – | 1 µg/mL (≈ 2.96 µM) | 0.5 µg/mL (≈ 1.48 µM) | 0.5 µg/mL (≈ 1.48 µM) | 1 µg/mL (≈ 2.96 µM) | 1 µg/mL (≈ 2.96 µM) | 0.5 to 2 µg/mL (≈ 1.48 to 5.93 µM) | 1 µg/mL (≈ 2.96 µM) | – | – | 1 µg/mL (≈ 2.96 µM) | 2 µg/mL (≈ 5.93 µM) | 2 µg/mL (≈ 5.93 µM) | – | – | – | – | – | – | MIC [6]: 0.5 to 2 µg/mL (≈ 1.48 to 5.93 µM)
